In US9186339B2, “Use of transcriptome modifying agents and chemotherapy or radiotherapy against cancer” (UNIVERSIDAD NACIONAL AUTONOMA DE MEXICO, priority 2005, dated 2015):
Like-named read-outs stand apart in the source and are kept apart here.

What was measured:
HeLa cells = assay: MTT cell viability assay, chemotherapeutic agent plus composition; format: cell-based; settings: for viability reduction: chemotherapeutic agent plus hydralazine 10 μM and magnesium valproate 1 mM, viability on day 4
Procedure: With this objective, three drugs were selected that are representative of his class: alkylating agents as cisplatin, antibiotic as doxorrubicin, antimetabolite as gemcitabine. The cells were plated in 96-well plates (Falcon Becton Dickinson, Franklin Lakes, N.J.) at a density of 1.5-2.5×10^3 cells/well in 0.1 ml of complete media. The following day the cells were treated with the chemotherapeutic agent at the concentration indicated in FIGS. 2A, 2B y 2C plus hydralazine at 10 μM and valproic acid or magnesium valproate at 1 mM. On the next day, the media containing the drugs was removed and fresh hydralazine and magnesium valproate were added at same concentration for another additional 48 hours. On the following day (day 4) cell viability was measured using an MTT assay. Briefly, 50 μl of MTT reagent in phosphate buffered solution were added to each well. […] Thereafter it is read spectrophotometrically on a ELISA reader. All the assays were carried out in triplicate. The cytotoxic effect of each treatment was expressed in the percentage of cell viability relative to the untreated control (% control) which is defined as [(A570nm treated cells)/A570nm untreated cells)]×100.

[1] = Clinical study of magnesium valproate: toxicity; format: in vivo, human; settings: 20, 30, 40 mg/Kg for 5 days
Procedure: (§1) Twelve patients with this cancer of recent diagnosis and without previous treatment received the following doses of magnesium valproate in groups of 4 patients. Group 1, 20 mg/Kg, Group 2, 30 mg/kg, Group 3, 40 mg/Kg. A biopsy of the tumor and a blood sample were taken before the treatment and on the following day (day 6) since valproic acid or a salt thereof such as magnesium valproate was administered for 5 days in divided doses every 8 hours. The hyperacetylation of Histone H3 was analyzed in the samples and histone H4 in the tumor by Western blot, as well as the activity of histone deacetylases in nuclear extracts of the tumor using a calorimetric essay, as well as the levels of valproic acid in serum. The level of expression of the genes p21 and CAR was also analyzed in the pos-treatment biopsies. The toxicity of the treatment was recorded at the end of the cycle.

[2] = tested on: Histone H3 and histone H4; assay: Clinical study of magnesium valproate: histone hyperacetylation in tumor by Western blot; format: in vivo, human; settings: of 12 patients, after treatment
Procedure: as §1

p21 = assay: Clinical study of magnesium valproate: gene expression in post-treatment biopsies; format: in vivo, human; settings: FIG. 8
Procedure: as §1

histone deacetylases = assay: Clinical study of magnesium valproate: histone deacetylase activity in nuclear extracts of the tumor; format: in vivo, human
Procedure: as §1

[3] = tested on: sarcoma HT1080 cellular line tumors; assay: HT1080 sarcoma model in immunodeficient mice; format: in vivo, athymic mice
Procedure: Once the capacity of hydralazine and valproic acid or a salt thereof such as magnesium valproate to alter the expression génica in the patients' tumors was assessed, we investigate if the composition of these transcriptome modifying agents increased the antitumoral effect of the chemotherapy in a model of sarcoma in immunodeficient mice. With this goal, groups of 6 female athymic mice were studied, which were injected with 6 million cells of the sarcoma HT1080 cellular line. Once the tumors were formed, the animals were treated systemically with hydralazine and valproic acid or a salt thereof such as magnesium valproate with doses equivalent to those used in the patients. The groups of treatment were as follows: 1) control treated with saline solution, 2) treated weekly with adriamycin, 3) treated with the composition of hydralazine and valproato for 7 days followed by the same weekly treatment with adriamycin. […] This phenomenon occurs commonly in the treatment of the cancer in the patients, where often an entire or almost entire antitumoral response is observed to relapse later. The composition of the present invention therefore might induce extended or complete remissions of the tumors.

[4] = tested on: promoters of APC, MGMT, ER, GSTP1, DAPK, RARβ, FHIT and p16; settings: post-treatment biopsies
Procedure: (§2) Whit this goal, hydralazine was administered to groups of 4 patients each group at doses of: 1) 50 mg/day, 2) 75 mg/day, 3) 100 mg/day and 4) 150 mg/day for 10 days. Biopsies and peripheral blood samples were taken before commencing treatment and at day 11. The state of pre- and post-treatment methylation was analyzed for the promoters of the following genes: APC, MGMT; ER, GSTP1, DAPK, RARβ, FHIT and p16 as well as the state of expression of their messengers by RT-PCR. Also the state of methylation of the gene subject to parental unactivation H19, and a genomic clone which normally is found methylated was evaluated, as well as the global content of methylated citokines in the genome. The toxicity to hydralazine was evaluated using the escale from the U.S. National Cancer Institute (CTC NCI). […] FIG. 3A.

[5] = 50-150 mg/day for 10 days, cancer patients
Procedure: as §2

[6] = tested on: expression of suppressive genes (APC, MGMT, ER, GSTP1, DAPK, RARβ, FHIT, p16)
Procedure: as §2

For Nc1ccn([C@@H]2O[C@H](CO)[C@@H](O)C2(F)F)c(=O)n1 [gemcitabine], which viability reduction (HeLa cells) is on record?
The viability reduction was 37%.

With CCCC(CCC)C(=O)O [magnesium valproate, 2-propylpentanoic acid] as the compound, how does the tolerability [1] read?
Its tolerability is “well tolerated”.

What about the “patients with Grade 2 drowsiness” value ([1]; of 12 patients) of the same compound?
Its value is “nine”.

And the “patients with hyperacetylation in both histones” value [2]?
The value was “six”.

And the “patients with hyperacetylation of H3” value [2]?
The value was “nine”.

And the “patients with hyperacetylation of H4” value [2]?
Its value is “seven”.

And the “expression of p21” value (p21)?
The value was “increases its expression”.

And the “patients with no changes in activity of histone deacetylases” value (histone deacetylases)?
The value was “two”.

What about the “patients in whom activity of histone deacetylases diminished” value (histone deacetylases; two-tailed t test p<0.0264) of the same compound?
The value was 8 patients.

With COc1cccc2c1C(=O)c1c(O)c3c(c(O)c1C2=O)C[C@@](O)(C(=O)CO)C[C@@H]3O[C@H]1C[C@H](N)[C@H](O)[C@H](C)O1 [adriamycin] as the compound, how does the “tumor re-growth after 3 weeks” value ([3]; weekly adriamycin alone, or composition for 7 days followed by weekly adriamycin, FIG. 9) read?
Its value is “the tumors grow again”.

And the antitumoral effect ([3]; weekly adriamycin, 3 weeks after treatment)?
Its antitumoral effect is “almost complete antitumoral effect”.

What about the viability reduction (HeLa cells) of the same compound?
Its viability reduction is 27%.

What does the source list for NNc1nncc2ccccc12 [hydralazine, 1-hydrazinophthalazine]?
percentage of demethylation ([4]; hydralazine 50 mg/day for 10 days): 40%; percentage of demethylation ([4]; hydralazine 75 mg/day for 10 days): 52%; percentage of demethylation ([4]; hydralazine 100 mg/day for 10 days): 43%; percentage of demethylation ([4]; hydralazine 150 mg/day for 10 days): 32%; frequency of demethylation, p16 ([4]; 2 out of 3): 67%; frequency of demethylation, MGMT ([4]; 2 out of 13 samples): 15%; tolerability [5]: well tolerated; undesirable effects registered [5]: nausea, sickness, fatigue, headache and palpitations; effect on genic expression in patients with cancer ([6]; dose between 50 and 150 mg): effective to alter the genic expression; cases demethylated post-treatment that re-expressed the gene ([6]; of the 12 informative cases): 9 cases

With N.N.[Cl][Pt][Cl] [cisplatin] as the compound, how does the viability reduction (HeLa cells) read?
The viability reduction was 37%.

What about the IC50 (HeLa cells; read-out: inhibitory concentration 50 (IC50)) of the same compound?
The IC50 was 12 µM.
